Measurements as given in US20210393807A1, “PHOTOACOUSTIC VOLTAGE-SENSITIVE DYES FOR IN VIVO IMAGING” (The Johns Hopkins University, priority 2016, published 2021).
Where “and” joins values, the source holds several entries; their conditions need not be identical. Equal values may be shown once.

Assays:
[1] = system: rat brain; experiment: Microdialysis of extracellular glutamate during NMDA infusion; type: in vivo, Sprague Dawley rats; settings: NMDA infusion phase, 0.3-mM NMDA via microdialysis probe; baseline phase 0.557 μM
From the text: (§1) 3.1.1 Animal preparation. For the in vivo experiments, 8-9-week-old male Sprague Dawley rats weighing 275-390 g were used (Charles Rivers Laboratory, Inc., MA, United States). The use of animals for the proposed experimental protocol was approved by the Institutional Research Board Committee of Johns Hopkins Medical Institute (RA16M225). The hair was shaved from the scalp of each rat for improved optical/acoustic coupling for transcranial PA recording. The head of the anesthetized rat was fixed to a stable position using a standard stereotaxic device. This fixation procedure was required to prevent any unpredictable movement during PA recording of neural activities.
3.1.2 Microdialysis setup. The microdialysis probe consists of a shaft with a semipermeable hollow membrane tip, which is connected to inlet and outlet tubing. The extracellular fluid samples were continuously acquired before and after the infusion of 0.3-mM NMDA through the inlet of the microdialysis probe (FIG. 22A). Each acquisition of extracellular fluid sample took 20 min with 2 μL/min flow rate. From the samples, the change of glutamate concentration was measured.
3.1.3 In vivo experimental protocol. […] PA data acquisition was continuously performed for 40 min to be correlated with the glutamate concentration change measured by microdialysis with 20-min intervals. […]

[2] = system: rat brain; experiment: PA recording of neural activity index during NMDA infusion; type: in vivo, Sprague Dawley rats
From the text: as §1
3.1.3 In vivo experimental protocol. The in vivo protocol was designed to have two different phases: baseline and NMDA infusion (FIG. 22B). PA data acquisition was continuously performed for 40 min to be correlated with the glutamate concentration change measured by microdialysis with 20-min intervals. The baseline phase was designed to confirm its stable neural activity before the NMDA infusion. […]

## CN[C@H](CC(=O)O)C(=O)O [NMDA]
[1]
  extracellular glutamate concentration: 0.000643 mM and 0.000648 mM
[2]; 30 min of NMDA infusion, after VSD and Lexiscan administration
  increase of neural activity index estimated by PA recording: up to 3.27 times
[2]; from the start of NMDA infusion
  time at which the increase of index is saturated: 10 to 15 min
